According to US8273775B2, “Non-steroidal brassinosteroid mimetic” (priority 2006, dated 2012):

What was measured:
AtAUR1 = biological target: T1, AtAUR1 (Arabidopsis thaliana, UniProt Q9M077); test: Kinase assay with AtAUR1 and histone H3 as substrate; format: biochemical; settings: 10 μM abrasin
T1 sequence (Q9M077 1-294): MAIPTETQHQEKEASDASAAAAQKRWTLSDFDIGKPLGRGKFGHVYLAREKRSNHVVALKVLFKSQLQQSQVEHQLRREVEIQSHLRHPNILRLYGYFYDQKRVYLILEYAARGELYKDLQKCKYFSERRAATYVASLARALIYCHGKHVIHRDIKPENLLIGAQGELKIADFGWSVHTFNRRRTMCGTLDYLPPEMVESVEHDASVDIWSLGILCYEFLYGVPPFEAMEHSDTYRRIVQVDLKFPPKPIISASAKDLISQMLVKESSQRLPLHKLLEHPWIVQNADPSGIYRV
Procedure: (§1) Coomassie staining was used as a loading control. b, Autoradiography of kinase assays with nine ASKs with MBP as a substrate in the presence or absence of 10 μM abrasin. The second member of group IV, ASKκ, had no kinase activity and was not included in the analysis. c, Autoradiography of kinase assays with AtMPK4, AtMPK6 and MBP as a substrate (left) and with AtAUR1 kinase and histone H3 as a substrate (right) in the presence or absence of 10 μM abrasin.
(§2) For in vitro kinase assays, MBP, MBP-BES1, and MBP-bes1 (20 ng each) were incubated with GST-BIN2 or GST-BRI1 kinase (200 ng each) in 20 μl of kinase buffer (20 mM Tris [pH 7.5], 100 mM NaCl, and 12 mM MgCl2) and 10 μCi ^32P-γATP. After incubation at 37° C. for 40 min, the reactions were stopped by adding 20 μl of 2×SDS buffer and boiling at 94° C. for 5 min. Proteins were resolved by a PAGE gel and phosphorylation was detected by exposing the dried gel to X-ray film. […]
(§3) Besides BIN2, nine additional GSK-3 kinases (also designated ASKs for Arabidopsis SHAGGY-related kinases) divided into four subgroups (I-IV) have been identified in Arabidopsis (Jonak and Hirt, 2002; Yoo et al. 2006). To determine the specificity of abrasin, its effect on the kinase activity of all ASKs was analyzed with myelin basic protein (MBP) as a general substrate. […]

[1] = tested on: cpd, det2-1, bri1-116 and bri1-301 mutants; test: Hypocotyl-elongation assay of dark-grown BR mutants; format: in vivo, Arabidopsis thaliana; settings: grown in the dark, 50 μM abrasin
Procedure: FIG. 6: Rescue of dark-grown BL mutants after treatment with 50 μM of abrasin (I5).
For further phenotypical analysis, all plants were grown on vertically oriented square plates (Greiner Labortechnik, Austria) with solid medium derived from standard Murashige and Skoog medium under the same conditions. For the hypocotyl-elongation assay, plants were grown in the dark at 22° C. under the same conditions.

GST-BIN2 = biological target: T2, GST-BIN2 (Arabidopsis thaliana, UniProt Q39011); test: SPR analysis of binding to immobilized GST-BIN2
T2 sequence (Q39011 1-380): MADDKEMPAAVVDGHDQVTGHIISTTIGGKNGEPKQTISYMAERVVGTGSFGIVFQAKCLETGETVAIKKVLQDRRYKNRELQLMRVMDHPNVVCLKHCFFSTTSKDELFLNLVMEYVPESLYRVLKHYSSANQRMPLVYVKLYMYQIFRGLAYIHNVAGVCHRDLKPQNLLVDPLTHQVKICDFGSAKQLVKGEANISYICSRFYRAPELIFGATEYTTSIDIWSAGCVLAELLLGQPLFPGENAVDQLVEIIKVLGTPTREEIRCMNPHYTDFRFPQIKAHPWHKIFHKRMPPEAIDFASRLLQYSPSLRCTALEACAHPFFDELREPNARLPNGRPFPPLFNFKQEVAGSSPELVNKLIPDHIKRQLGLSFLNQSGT
Procedure: FIG. 13: Abrasin directly interacts with BIN2. SPR sensorgrams for abrasin binding to GST-BIN2 after injection of different abrasin concentrations as indicated. […] Reference and blank data are subtracted. The experiment was performed in triplicate. Biacore T100 was used to analyze interaction of abrasion with BIN2. Using amine coupling, purified GST-BIN2 was immobilized in the flow cell of a Series S CM5 Sensor Chip (Research Grade, Biacore AB). HBS-EP (Biacore AB) was used as running buffer, flow rate was set at 5 μl/min. The surface of the chip was activated by injecting a mixture of EDC (0.2 M) and NHS (0.05 M) for 10 min. Subsequently, 20 μg/ml GST-BIN2 in 10 mM sodium acetate buffer (pH 6.0) was injected for 20 min. The immobilization level of GST-BIN2 was≈20,000 RU. The chip was then flushed with 1 M ethanolamine (pH 8.5) for 10 min to deactivate the surface. A flow cell treated with a cycle of activation and deactivation without immobilized ligand was used as a reference. […] Different concentrations of abrasin were injected at a flow rate of 30 μl/min over the reference and the GST-BIN2 flow cell for 90 s, followed by 180 s of buffer flow (dissociation phase). Zero concentration samples were used as blanks. The flow cell temperature was set to 25° C.

AtMPK6 = AtMPK6 (Arabidopsis thaliana, UniProt Q39026); test: Kinase assay with AtMPK6 and MBP as substrate; format: biochemical; settings: 10 μM abrasin
Procedure: as §1, §2, §3

[2] = tested on: bri1-116 plants grown in soil; test: Rescue of soil-grown mutants by watering; format: in vivo, Arabidopsis thaliana; settings: watered with 2 ml 300 μM ABRASIN per day
Procedure: FIG. 15: Phenotype rescue of brit-116 and cpd mutants. (A.) The mutant and Col-0 plants were germinated on MS+DMSO medium till day 5 and afterwards transferred on MS supplemented with DMSO, 1 μM BL or 30 μM ABRASIN until day 11. Treatment with BL rescues the cpd mutant phenotype but not bri1-116 while ABRASIN rescues both mutants. […] BL: brassinolide; BIK: abrasin.
Col-0, the null BR signaling bri1-116 (Friedrichsen et al., 2000) and BR biosynthetic cpd (Szekeres et al., 1996) mutants were subjected to phenotype rescue analysis by treatments with BL and ABRASIN. As a negative control, dimethylsulfoxide (DMSO) was used. Plants were germinated in vitro for 5 days on ½ MS containing DMSO medium and from day 6th to day 11th they were transferred on medium supplemented with BL (10 nM, 100 nM, 1000 nM), ABRASIN (5 μM, 10 μM, 30 μM) or DMSO. Cotyledons and leaves were collected for flowcytometric analysis at the 11th day (i.e. 6 days of treatments). Samples for β-glucuronidase (GUS) assay were taken on day 6th (i.e. 1 day treatments), 8th (i.e. 3 days treatments), 10th (i.e. 5 days treatments). Rescue of soil-grown mutants at different growth stages was checked by watering bri1-116 and cpd mutants with either BL or 2 ml 300 μM ABRASIN per day.

Sequence of AtMPK6 (Q39026 whole entry): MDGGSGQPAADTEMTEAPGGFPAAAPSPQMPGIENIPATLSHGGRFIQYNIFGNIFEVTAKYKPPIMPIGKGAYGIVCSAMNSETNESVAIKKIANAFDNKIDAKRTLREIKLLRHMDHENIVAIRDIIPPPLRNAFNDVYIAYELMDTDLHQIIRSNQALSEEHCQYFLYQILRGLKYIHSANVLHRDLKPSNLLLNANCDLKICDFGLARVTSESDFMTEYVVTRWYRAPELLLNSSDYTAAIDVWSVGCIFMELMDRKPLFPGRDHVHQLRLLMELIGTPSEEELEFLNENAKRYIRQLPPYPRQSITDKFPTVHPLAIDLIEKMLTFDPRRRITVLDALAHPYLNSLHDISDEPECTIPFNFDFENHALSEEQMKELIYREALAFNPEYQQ

O=C(O)CCC(=O)Nc1ccc(Br)cn1 [abrasin, 4-[(5-bromo-2-pyridinyl)amino]-4-oxobutanoic acid]
effect on kinase activity (AtAUR1): no effect | hypocotyl length of dark-grown mutants [1]: all mutant lines had hypocotyls of normal length | concentration from which a clear SPR response starts (GST-BIN2): ≥ 10 µM | Kd (GST-BIN2; 1:1 interaction model, 25° C.): 199 µM | kd (GST-BIN2; 1:1 interaction model, 25° C.): 0.081 s⁻¹ | kon (GST-BIN2; 1:1 interaction model, 25° C., read-out: ka): 407 M⁻¹ s⁻¹ | effect on kinase activity (AtMPK6): no effect | phenotype change of soil-grown mutant [2]: sufficient to slightly change the phenotype of 1 month-old bri1-116 plants in a week
